In one experiment the test system is immature BM-DCs. The experiment in a line: Phenotypic maturation of murine BM-DCs: surface maturation markers by FACS. Format: cell-based, mouse. To be noted: CD11c+ gated, mean fluorescence intensity, peptide 200 μg/ml, HMGB1-Bx 50 μg/ml. The protocol:
In order to determine whether HMGB1-Bx and/or particular HMGB1 peptides could induce phenotypic maturation of murine DCs, immature BM-DCs were exposed to either HMGB1-Bx, a particular HMGB1 peptide, or LPS (FIG. 3). Fluorescence activated cell sorting (FACS) analysis was performed on immature DCs that were cultured in the presence of either HMGB1-Bx (50 μg/ml), an HMGB1 peptide (200 μg/ml), or LPS (100 ng/ml). Untreated DCs (medium) were also tested as a control. DCs were gated on CD11c^+ cells and analyzed for expression of specific maturation markers (e.g., CD86, MHC-II, CD40) by surface membrane immunofluorescence. In particular, 1×10^4 DCs were reacted for at least 20 min at 4° C. in […] of PBS/5% FCS/0.1% sodium azide (staining buffer) with fluorescein isothiocyanate (FITC)-conjugated IgG monoclonal antibodies (mAbs) that are specific for CD86, CD40 or MHC-II (eBioscience). Cells were then washed 4 times with staining buffer, fixed in 10% formaldehyde in PBS (pH 7.2-7.4) and examined by flow cytometry using a FACScan (BD Biosciences). In all experiments, isotype controls were included using a FITC-conjugated irrelevant mAb of the same Ig class. Results are depicted as mean fluorescence intensity (MFI).

In experiment [1] the test system is allogeneic T cells co-cultured with BM-DCs. The experiment in a line: Functional maturation of BM-DCs: allogeneic T cell proliferation in mixed lymphocyte reaction (3H-thymidine). Format: cell-based, mouse. To be noted: BM-DCs from C57/BL6 mice exposed 48 h; peptide 200 μg/ml, HMGB1-Bx 50 μg/ml; DC:T cell ratio 1:120, 5 days; FIG. 4A. The procedure:
Immature BM-DCs that were generated from C57/BL6 mice (FIG. 4A) or Balb/c mice (FIG. 4B) were incubated for 48 h with either HMGB1-Bx (50 μg/ml), a particular HMGB1 peptide (200 μg/ml), LPS (100 ng/ml) or were left untreated (medium). T cells were isolated by negative selection using the mouse SpinSep antibody cocktail from StemCell Technologies (Vancouver, Calif.), according to the manufacturer's instructions. The cell purity of the isolated T cells was routinely ˜99% pure. In order to assess levels of T cell activation and proliferation, cells were plated at 10^5 cells per well in a round-bottomed 96-well tray at a DC:T cell ratio of 1:120 for 5 days in the medium described above. The microcultures were pulsed with (^3H)-thymidine ([…]) for the final 8 h of culture. Cell cultures were harvested onto glass fiber filters with an automated multiple sample harvester and the amount of isotope incorporation was determined by liquid scintillation β-emission. Responses are reported as mean cpm of thymidine incorporation by triplicate cultures (±SEM).

Where no end group is shown, it is not given here. The star is where a group is joined. Biotin = O=C1N[C@H]2[C@H](CS[C@H]2CCCCC(=O)*)N1

With “SIGDVAKKLGEMWNNTAA (Biotin-SIGDVAKKLGEMWNNTAA; listed as Homo sapiens) [Hp-121, control peptide]”, in the experiment on immature BM-DCs (FIG. 3A), the “CD86 expression on the surface of BM-DCs” value is “No altered expression”. Besides, in the experiment with immature BM-DCs (FIG. 3B), the “MHC-II expression on the surface of BM-DCs” value is recorded as “No altered expression”. Besides, the “CD40 expression on the surface of BM-DCs” value with immature BM-DCs (FIG. 3C) is “No altered expression”. In experiment [1], the “proliferation of resting allogeneic T cells (3H thymidine incorporation)” value was “did not show enhanced T cell stimulatory activity”.

(Values after patent US8354106B2, “Antibodies against HMGB1 and fragments thereof” (The Feinstein Institute for Medical Research, priority 2005, dated 2013).)
